The term ED50 denotes the midpoint of the dose-response relation. Higher therefore signals a need for a large dose.

A value given as a limit tells only on which side of the number the result lay.

Common to all, as to test: Mouse protection test, i.p. infection, survival ED50
Assay type in all cases: in vivo

The subject of assay [1] is Salmonella typhimurium 273. The settings on record: Salmonella enterica, sc, 240 h, mice, 400 x 10^4 cfu i.p., s.c. immediately and 3 h after infection, results after 10 days. The text has this: (§1) Die hohe antibiotische Wirkung des neuen Verfahrens und der neuen Präparate kann durch "in vivo"-Versuche nachgewiesen werden, die an verschiedenen Tierarten, insbesondere an Säugetieren, wie Mäusen, durchgeführt werden. Dazu infiziert man sie mit einer letalen oder sub-letalen Dosis eines pathogenen Microorganismus und gibt dann das genannte neue Präparat bzw. die einzelnen Dosen an Muramylpeptid und Antibiotikum. Die Wirkung wird als ED bestimmt, das ist diejenige Dosis bei denen […] der Tiere überleben.
(§2) Beispiel 4: Man infiziert weisse Laboratoriums-Mäuse auf i.p. Wege mit den in der nachfolgenden Tabelle angeführten pathogenen Mikroorganismen in Salzlösung, so dass 90-100% der nicht behandelten Kontrolltiere innerhalb von 48 Stunden getötet werden. Unmittelbar, sowie 3 Stunden nach der Infektion werden Gruppen zu je 10 Mäusen mit Cefroxadin, sowohl allein (ohne MDP oder nMDP) als auch in Kombination mit N-Acetyl-muramyl-L-alanyl-D-isoglutamin (MDP) bzw. mit N-Acetyldesmethylmuramyl-L-alanyl-D-isoglutamin (nMDP) behandelt, wobei dieselben zweimal in Form wässriger Lösungen oder Suspensionen auf subkutanem Weg verabreicht wurden. Nach 4 bzw. 10 Tagen nach erfolgter Infektion wurden die überlebenden Tiere gezählt. Die meisten dieser Versuche wurden zweifach ausgeführt und die Mittelwerte ermittelt.

Assay [2] has as its system Salmonella typhimurium 277. The settings on record: Salmonella enterica, sc, 240 h, mice, 40 x 10^4 cfu i.p., s.c. immediately and 3 h after infection, results after 10 days.
Text: as §1, §2

The test system of assay [3] is Streptococcus pyogenes 38. Particulars: Streptococcus pyogenes, 38, sc, 96 h, mice, 0.6 x 10^4 cfu i.p., s.c. immediately and 3 h after infection, survivors after 4 days.
Text: as §1
as §2, with “10 Tagen nach erfolgter Infektion wurden die überlebenden Tiere gezählt.” left out

For assay [4], the system named is Staphylococcus aureus 2999. The settings on record: Staphylococcus aureus, 2999, sc, 96 h, mice, 20 000 x 10^4 cfu i.p., s.c. immediately and 3 h after infection, survivors after 4 days.
Text: as §1
as §2, with “10 Tagen nach erfolgter Infektion wurden die überlebenden Tiere gezählt.” left out

Assay [5] has as its system Klebsiella pneumoniae 329. The settings on record: Klebsiella pneumoniae, 329, sc, 96 h, mice, 2 x 10^4 cfu i.p., s.c. immediately and 3 h after infection, survivors after 4 days.
Text: as §1
as §2, with “10 Tagen nach erfolgter Infektion wurden die überlebenden Tiere gezählt.” left out

In assay [6] the test system is Klebsiella pneumoniae 327. The settings on record: Klebsiella pneumoniae, 327, sc, mice, 60 x 10^4 cfu i.p., s.c. immediately and 3 h after infection, survivors.
Text: as §1
as §2, with “10 Tagen nach erfolgter Infektion wurden die überlebenden Tiere gezählt.” left out

In another assay the test system is Pasteurella multocida. Particulars: sc, mice, 0.1 x 10^4 cfu i.p., s.c. immediately and 3 h after infection, survivors.
Text: as §1
as §2, with “10 Tagen nach erfolgter Infektion wurden die überlebenden Tiere gezählt.” left out

With `COC1=C(C(=O)O)N2C(=O)[C@@H](NC(=O)[C@H](N)C3=CCC=CC3)[C@H]2SC1` [Cefroxadin, 7ß-[D-2-amino-2-(1,4-cyclohexadienyl)-acetamido]-3-methoxy-3-cephem-4-carbonsäure], the 50% effective dose (ED50) in assay [1] (mit 10 mg/kg MDP) is 22.5 mg/kg; in assay [1] (mit 10 mg/kg nMDP), 14 mg/kg; in assay [1] (ohne MDP oder nMDP), 39 mg/kg; in assay [2] (mit 10 mg/kg MDP), 7.6 mg/kg; in assay [2] (mit 10 mg/kg nMDP) it was 11 mg/kg; in assay [2] (ohne MDP oder nMDP), 22.5 mg/kg. Moreover, the median effective dose (ED50) stood at 0.18 mg/kg in assay [3] (mit 10 mg/kg MDP); 0.17 mg/kg in assay [3] (mit 10 mg/kg nMDP); 0.21 mg/kg in assay [3] (ohne MDP oder nMDP); 45 mg/kg in assay [4] (mit 10 mg/kg MDP); 35 mg/kg in assay [4] (mit 10 mg/kg nMDP); 58 mg/kg in assay [4] (ohne MDP oder nMDP). Besides, the 50% effective dose (ED50) in assay [5] (mit 10 mg/kg MDP) was 4.5 mg/kg; in assay [5] (mit 10 mg/kg nMDP), less than 2.5 mg/kg; in assay [5] (ohne MDP oder nMDP), 14.2 mg/kg; in assay [6] (mit 10 mg/kg MDP), less than 50 mg/kg; in assay [6] (mit 10 mg/kg nMDP), less than 50 mg/kg; in assay [6] (ohne MDP oder nMDP), 75 mg/kg. For the same molecule, the ED50 came to 37 mg/kg with Pasteurella multocida (mit 10 mg/kg MDP), 70 mg/kg in the assay with Pasteurella multocida (mit 10 mg/kg nMDP) and 109 mg/kg with Pasteurella multocida (ohne MDP oder nMDP).
